According to patent US20220315897A1, “METHOD FOR IN VITRO PRODUCTION OF HYALINE CARTILAGE TISSUE” (VANARIX SA, priority 2019, published 2022):

Assays:
Assay type in all cases: cell-based, human
WNT signaling = assay: Immunoblotting of chondrocytes treated with WNT signaling inhibitor; conditions: 10 μM, 4 days, 2D culture in medium E
Protocol: (§1) XAV939 was obtained by Sigma and used at the concentration of 10 μM for 4 days in 2D culture in medium E.
Cells were lysed 30 min on ice in ice-cold RIPA buffer (Life Technologies), supplemented with phosphatase and protease inhibitors (Complete anti-protease cocktail; Roche). Protein (10 μg) was separated by SDS-PAGE (BioRad) and transferred to PVDF membranes (Amersham) Blots were probed with anti-phospho-β-catenin (Cell Signaling; 5651T), TCF-4 (Cell Signaling; 2569), Axin1 (Cell Signaling; 2087), β-actin HRP (Sigma-Aldrich) and GADPH (Cell Signaling; 2118) (1:1000) followed by the HRP-Rabbit or Mouse conjugated antibodies (1:5000).
(§2) In order to validate the role of WNT pathway downregulation during the redifferentiation phase (medium R) (FIG. 1A), the inventors replaced medium R by medium E supplemented with 10 μM of XAV-939, a WNT pathway inhibitor for 4 days (FIG. 7G).

chondrocytes [1] = assay: qPCR of ACAN and COL2A1 mRNA in chondrocytes and beads (2-step method) with WNT inhibitor; conditions: 10 μM in medium E; 2-step method after 2D and 3D culture
Protocol: as §1
Isolation of total RNA was performed by using the RNeasy kit from Qiagen according to the manufacturer's instructions and was measured using a spectrometer. 500 ng of total RNA was used to synthesize cDNA using the PrimeScript RT Reagent Kit (Takara) according to manufacturer's protocol.
Real-time PCR was performed with PowerUp SYBR Green Master Mix (Applied Biosystems) using the QuantStudio 12K Flex Real-Time PCR System (Thermo Fisher Scientific) at the Genomic platform core facilities (University of Geneva). First, efficacy tests were performed for all primers for validation prior utilization. The relative level of each sample was normalized, at least, to […] (ALAS1). RT-PCR reactions were carried out, at least, in technical and biological triplicates, and the average cycle threshold (CT) values were determined.
as §2

chondrocytes [2] = assay: Safranin-O staining of GAG in beads from chondrocytes cultured in medium E + WNT inhibitor (2-step method); conditions: medium E + 10 μM inhibitor
Protocol: as §1
Safranin-O staining of cartilage spheres and native cartilage formalin-fixed paraffin-embedded samples was performed, in order to reveal glycosaminoglycans (GAG) on 5 μm paraffin slices. Slides were deparaffinated by Xylol and rehydrated by consecutive alcohol bath (concentration 100%, 95% and 70%) with a final 5-minutes distilled water bath. Then, hematoxylin staining was used for nucleus counterstaining, followed by a 5-minutes wash with running hot water. Fast Green (Sigma F7252) was used to stain the cytoplasm, then washed out with acetic acid. The slides were washed out immediately with distilled water. Safranin-O 0.1% in water bath (Sigma S2255) was applied for staining of GAGs for two and a half minutes, then washed repeatedly with distilled water. Dehydration was achieved by vigorously shaking the rack 10-20 times in alcohol baths (concentration 95% and 100%), followed by a Xylol bath until slides assembly with Eukitt resin (Batch A1113, KiNDO1500).
as §2

Structure (SMILES): Oc1nc(-c2ccc(C(F)(F)F)cc2)nc2c1CSCC2 [XAV-939]
- axin (immunoblot) (WNT signaling): increase
- phospho-β-catenin (immunoblot) (WNT signaling): increase
- ACAN expression (chondrocytes [1]): increase
- COL2A1 expression (chondrocytes [1]): increase
- GAG Safranin-O staining of beads (chondrocytes [2]): presence of hyaline features
